Assay results published in patent publication US10532109B2, “Peptide-DNA chimeras for treatment of HER overexpressing cancers” (ARIZONA BOARD OF REGENTS ON BEHALF OF ARIZONA STATE …, priority 2016, dated 2020).
Entries after “also recorded” stand apart in the source; their conditions may differ. Where two headings read alike, the source gives them in different places.

Experiments:
[1] = tested on: BT474 human breast cancer cells (overexpression of HER2); experiment: Cancer cell inhibition assay (MTT), BT474; type: cell-based; details: for inhibition at 0.32 µM: BT-474, 320 nM doxorubicin, free or as 6.4 nM IV (1:50 III-doxorubicin); for inhibition at 0.32 µM / inhibition at 0.64 µM: read-out: inhibition of BT474 cell growth; for inhibition at 0.64 µM: BT-474, 640 nM doxorubicin, free or as 12.8 nM IV
Protocol: Exponentially growing BT474 cells and MDA-MB-231 cells were harvested and plated in 96-well plates at a concentration of 2×10^4 cells/well for BT474 cells and 5×10^4 cells/well for MDA-MB231 cells. […] Then 20 μL of MTT (5 mg/mL) was added to each well and the plates were incubated at 37° C. for 4 hours. The supernatant was discarded, and 100 μL of DMSO was added to each well. The absorbance was recorded at 490 nm after 15 minutes. Inhibition of cell growth was obtained by the following formula: Inhibition (%)=(ODTreatment−ODbackground)/(ODNagative control−ODbackground)×100%

[2] = tested on: BT474 cells; experiment: HER2 binding assay (fluorescence microscopy), BT474; type: cell-based, human; details: 1 μM; 1 hour
Protocol: (§1) BT474 cells and MDA-MB-231 cells were grown on glass bottom microwell disks at a cell density of approximately 10,000 cells/well at 37° C. for 48 hours. […] Then the cells were stained using 2.5 μg/mL DAPI (Invitrogen) for 30 minutes after the cells were rinsed with phosphate buffered saline (PBS) for two times. Finally, the cells were fixed with 4% paraformaldehyde for 10 minutes. The fluorescent images were obtained using a fluorescence microscope (Nikon Ti-U, Japan) with red and green filters. Thereafter, all images were recorded and the target cells counted using a 40× oil objective. To ensure accurate intensity measurements, the exposure time (3000 ms) and laser time were kept the same. The mean pixel intensity within the region of interest was calculated. Data are reported as the mean of three independent experiments, each run in quintuplicate. The data was expressed as mean±SD.

[3] = tested on: MDA-MB-231 cells; experiment: HER2 binding assay (fluorescence microscopy), MDA-MB-231; type: cell-based, human; details: 1 μM; 1 hour
Protocol: as §1

[4] = tested on: MDA-MB-231 human breast cancer cells (low expression of HER2 receptor); experiment: Cancer cell inhibition assay (MTT), MDA-MB-231; type: cell-based; details: 48, 72, 96 h
Protocol: BT474 human breast cancer cells (ATCC® HTB-20™, overexpression of HER2) and MDA-MB-231 human breast cancer cells (ATCC® HTB-26™, low expression of HER2 receptor) were cultured at 37° C. in a 5% CO2 atmosphere and grown in Gibco® RPMI 1640 medium supplemented with 10% fetal bovine serum (FBS) and 1% antibiotic-antimycotic mix antibiotic supplement before use.
Exponentially growing BT474 cells and MDA-MB-231 cells were harvested and plated in 96-well plates at a concentration of 2×10^4 cells/well for BT474 cells and 5×10^4 cells/well for MDA-MB231 cells. […] Then 20 μL of MTT (5 mg/mL) was added to each well and the plates were incubated at 37° C. for 4 hours. The supernatant was discarded, and 100 μL of DMSO was added to each well. The absorbance was recorded at 490 nm after 15 minutes. Inhibition of cell growth was obtained by the following formula: […]
Data are reported as the mean of three independent experiments, each run in quintuplicate.

For COc1cccc2c1C(=O)c1c(O)c3c(c(O)c1C2=O)C[C@@](O)(C(=O)CO)C[C@@H]3O[C@H]1C[C@H](N)[C@H](O)[C@H](C)O1 [doxorubicin], the inhibition at 0.32 µM ([1]; 48 h) was 19%, the inhibition at 0.32 µM ([1]; 72 h) was 43% and the inhibition at 0.32 µM ([1]; 96 h) was 44%. It also gave an inhibition at 0.64 µM ([1]; 48 h) of 36%, an inhibition at 0.64 µM ([1]; 72 h) of 68% and an inhibition at 0.64 µM ([1]; 96 h) of 78%. For the same compound, the inhibition at 0.16 µM ([1]; BT-474, read-out: average inhibition of BT474 cell growth) was 10%, the “binding ability to BT474 cells (fluorescence on cell surface, in words)” value [2] was “relatively weak fluorescence intensity; also recorded: relatively weak ability” and the “binding selectivity between BT474 and MDA-MB-231 cells” value [2] was “did not show any binding selectivity; also recorded: did not shown any selectivity”. The “binding ability to MDA-MB-231 cells (fluorescence on cell surface, in words)” value [3] was “relatively weak fluorescence intensity; also recorded: relatively weak ability”, the “fold higher average percent inhibition of MDA-MB-231 by doxorubicin than IV” value (“fold higher average percent inhibition” for short) ([4]; 160 nM doxorubicin concentration) was 1.0-2.3 fold and the “fold higher average percent inhibition” value ([4]; 320 nM doxorubicin concentration) was 1.3-2.0 fold. The “fold higher average percent inhibition” value ([4]; 640 nM doxorubicin concentration) was 1.6-2.0 fold.
